Source: patent publication US9950038B2, “Methods and compositions for inhibiting delayed graft function” (THE TRUSTEES OF THE UNIVERSIY OF PENNSYLVANIA, priority 2011, dated 2018)
Ends that are not written are not given here.

Columns and labels:
[1] = system: conscious dogs; assay: Recovery after coronary artery occlusion and reperfusion in conscious dogs; format: in vivo; details: 1.5 pmol/kg/min at the time of reperfusion following coronary artery occlusion
Description: CBF and respective regional wall thickening responses to CAO and CAR. The CBF response (top) is characterized by reactive hyperemia followed by gradual return of flow to pre-occlusion levels in both control and GLP-1-treated animals. The different patterns of recovery of regional contractile function between the two groups are illustrated (bottom).
(§1) This mechanism involves improved ventricular relaxation which is known to be most sensitive to ATP depletion.

[2] = system: humans with acute myocardial infarction; assay: Infusion at reperfusion in humans with acute myocardial infarction; format: in vivo
Description: Lower panel illustrates individual data. […] Lower panel illustrates individual data.
as §1

[3] = system: patients with Class 3-4 heart failure; assay: Administration to patients with Class 3-4 heart failure; format: in vivo, humans; details: administered for 5 weeks
[4] = system: conscious dogs with pacing-induced DCM; assay: Myocardial glucose uptake during hyperinsulinemic euglycemic clamp in conscious dogs with pacing-induced DCM; format: in vivo; details: basal and insulin-stimulated
Description: This provides glycolytic ATP without further increases in mitochondrial ROS production. […] This provides the rationale for the use of the native peptide in the treatment of post-ischemic allograft injury.

[5] = system: conscious pigs with biventricular failure; assay: Chronic conscious pig model of biventricular failure with impaired renal blood flow; format: in vivo; details: short term (2 hours) infusion, 1.5 pmol/kg/min
Description: FIG. 4, comprising FIG. 4A and 4B show impaired renal blood flow but not cardiac output in pigs with biventricular failure.
There is a model of biventricular heart failure in conscious pigs that is associated with reductions in renal blood flow and function. FIG. 3 illustrates the model and the perturbation in renal blood flow. This is an important model of cardio-renal syndrome in which renal and cardiac injury are found together. FIG. 4 illustrates a 50% reduction in renal blood flow without a reduction in cardiac output in conscious pigs with biventricular failure.

[6] = system: HIF-1a; assay: HIF-1a induction in normal hearts; format: in vivo; details: intravenous continuous administration
Description: The induction of this cyto-protective program is beneficial in the face of subsequent ischemic injury in allografts. p38 MAP kinase activation has been associated with the stabilization of praline residues which otherwise target the HIF-1a subunits to ubiquinization. The stabilization allows the subunits to form heterodimers which active a gene program of cytoprotection.

Substance | recovery of left ventricular function [1] | peri-infarct and global LV function ([2]; 1.5 pmol/kg/min at the time of reperfusion, humans with acute myocardial infarction, versus patients on comparable therapies without GLP-1) | natriuresis [3] | myocardial glucose uptake [4] | requirement for inotropic and pressure support ([2]; GLP-1 infusion, population not given) | GFR [5] | renal blood flow [5] | urinary sodium excretion [5] | HIF-1a mRNA [6] | expression of HIF-1a inducible genes, heme-oxygenase-1 (HO-1) [6]
GLP-1 (7-36) amide (HAEGTFTSDVSSYLEGQAAKEFIAWLVKGR-NH2) | more rapid and complete recovery of left ventricular function | improved peri-infarct and global LV function | significant natriuresis that required reduction in diuretic doses | increase myocardial glucose uptake independent of an increase in circulating insulin |  |  |  |  |  | 
Glucagon-like peptide-1 [GLP-1] |  |  |  |  | reduces the requirement for inotropic and pressure support | improvement in GFR | returned renal blood flow to near normal levels | increased urinary sodium excretion | increases in HIF-1a mRNA | increased expression of HIF-1a inducible genes, heme-oxygenase-1 (HO-1)
GLP-1 (9-36) amide (EGTFTSDVSSYLEGQAAKEFIAWLVKGR-NH2) |  |  |  | increase myocardial glucose uptake independent of an increase in circulating insulin |  |  |  |  |  | 
